Read-outs that look alike come from different tables or passages of the source.
Tests used:
[1] = molecular target: Cdk1/cycB (UniProt P06493); assay: Cdk1/cycB kinase assay, histone H1 substrate; format: biochemical, starfish
Protocol: The inhibition of Cdk1 can be determined as follows: Cdk1/cycB: Cdk1/cycB are obtained from ProQinase, Freiburg, Germany. Starfish oocytes are induced to enter M phase of the cell cycle with 10 μM 1-methyladenine and frozen in liquid nitrogen and stored at −80° C. […] Briefly, the supernatant from oocytes is equilibrated for 30 min at 4° C. under constant rotation with the p9^CKShs-sepharose beads. The beads are extensively washed and active cdk1/cycB kinase is eluted with purified p9^CKShs (3 mg/ml). […] The assay is carried with slight modifications in 96-well plates at ambient temperature for 20 min. […] The reaction is terminated by addition of 25 μl 0.05 M EDTA pH 7.0. An aliquot of 40 μl is spotted with a multichannel dispenser on Immobilon P membranes mounted in a Millipore Microtiter filter manifold connected to a low vacuum source. After elimination of liquid, the membrane is transferred to a sequence of 4 washing baths containing 0.5% H3PO4 and one with EtOH (shaking incubation for 10 min each), dried, mounted onto a Hewlett Packard TopCount manifold added 10 μl Microscint® and counted. […] Cells were seeded at 2.5×10^7 cells per 150 mm dish and allowed to attach to a 150 mm dish for 1 hr at RT. Media (SF900II containing 10% FBS) is aspirated and recombinant baculovirus; GST-C-Raf-1, v-Ras and v-Src are added at MOI of 3.0, 2.5 and 2.5 receptively in a total volume of 4-5 mL. Cells are incubated for 1 hr at RT and then 15 mL of medium is added. Infected cells are incubated for 48-72 hr at 27° C. Infected Sf21 cells are scraped and collected into a 50 mL tube and centrifuged for 10 min at 4° C. at 1100 g in a Sorvall centrifuge. The cell pellet is washed once with ice cold PBS and lysed with 0.6 mL lysis buffer per 2.5×10^7 cells. Complete lysis of cells is achieved after 10 min on ice with occasional pipetting. […] GST-c-Raf-1 was allowed to bind to the beads at 4° C. for 1 hr with rocking. Bound GST-c-Raf-1 with beads was transferred to a column. The column is washed once with lysis buffer and twice with ice cold Tris buffered saline. Ice cold elution buffer is added and column flow is stopped to allow the free glutathione to disrupt the interaction of GST-c-Raf-1 with glutathione sepharose beads. Fractions (1 mL) are collected into pre-chilled tubes. Each tube contains 10% glycerol (final concentration) to maintain kinase activity during freeze thaw cycles. Purified fractions of GST-c-Raf-1 kinase protein are stored at −80° C.

[2] = molecular target: HER-1 (Homo sapiens, UniProt P00533); assay: HER-1 kinase inhibition; format: biochemical; settings: Table 5; read-out: HER-1, IC50 class
HER-1, sequence (P00533 25-1210, species assumed): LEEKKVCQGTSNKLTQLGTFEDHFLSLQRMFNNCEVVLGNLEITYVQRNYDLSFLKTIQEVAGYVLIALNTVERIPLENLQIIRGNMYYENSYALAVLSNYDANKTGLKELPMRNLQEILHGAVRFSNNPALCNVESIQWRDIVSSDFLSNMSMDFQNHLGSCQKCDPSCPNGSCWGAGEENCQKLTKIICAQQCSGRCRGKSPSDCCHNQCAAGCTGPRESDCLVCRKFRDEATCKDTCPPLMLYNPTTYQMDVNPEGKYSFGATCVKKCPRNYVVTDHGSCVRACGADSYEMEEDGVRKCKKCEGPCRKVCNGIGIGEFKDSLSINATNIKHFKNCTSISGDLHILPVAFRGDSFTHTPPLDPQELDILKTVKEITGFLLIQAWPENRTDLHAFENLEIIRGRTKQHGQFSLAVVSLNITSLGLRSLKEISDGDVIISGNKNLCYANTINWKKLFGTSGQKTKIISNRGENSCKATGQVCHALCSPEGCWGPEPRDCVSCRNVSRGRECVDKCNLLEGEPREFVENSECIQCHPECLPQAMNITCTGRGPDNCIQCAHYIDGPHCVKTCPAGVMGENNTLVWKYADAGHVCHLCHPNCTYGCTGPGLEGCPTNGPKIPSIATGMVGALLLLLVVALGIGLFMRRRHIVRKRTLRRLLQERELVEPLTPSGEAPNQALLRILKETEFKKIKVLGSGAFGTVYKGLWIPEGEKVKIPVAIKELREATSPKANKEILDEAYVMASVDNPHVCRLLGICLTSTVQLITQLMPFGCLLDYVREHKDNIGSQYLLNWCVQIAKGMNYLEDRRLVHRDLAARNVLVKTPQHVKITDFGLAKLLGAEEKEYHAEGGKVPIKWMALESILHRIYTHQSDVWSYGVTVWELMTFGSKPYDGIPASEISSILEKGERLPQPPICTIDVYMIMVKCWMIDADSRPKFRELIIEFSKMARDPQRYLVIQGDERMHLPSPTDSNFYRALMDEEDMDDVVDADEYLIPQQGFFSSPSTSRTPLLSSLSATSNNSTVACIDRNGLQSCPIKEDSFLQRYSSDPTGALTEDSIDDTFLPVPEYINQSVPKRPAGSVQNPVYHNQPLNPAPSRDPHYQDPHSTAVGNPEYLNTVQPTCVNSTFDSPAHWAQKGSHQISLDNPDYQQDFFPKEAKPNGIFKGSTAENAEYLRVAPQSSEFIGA

[3] = molecular target: T1, Tek (Homo sapiens, UniProt Q02763); assay: Tek kinase inhibition, GST-fused kinase domain; format: biochemical; settings: Table 5; read-out: Tek, IC50 class
T1 construct: N-terminally GST-fused (pAcG1, Pharmingen) KDR, Flt-1, Flk-1, Tek and PDGFR-β kinase domains are obtained from ProQinase, Freiburg, Germany; host or cells: Sf9 or High Five (baculovirus)
T1 sequence (Q02763 824-1096 limits assumed, species assumed): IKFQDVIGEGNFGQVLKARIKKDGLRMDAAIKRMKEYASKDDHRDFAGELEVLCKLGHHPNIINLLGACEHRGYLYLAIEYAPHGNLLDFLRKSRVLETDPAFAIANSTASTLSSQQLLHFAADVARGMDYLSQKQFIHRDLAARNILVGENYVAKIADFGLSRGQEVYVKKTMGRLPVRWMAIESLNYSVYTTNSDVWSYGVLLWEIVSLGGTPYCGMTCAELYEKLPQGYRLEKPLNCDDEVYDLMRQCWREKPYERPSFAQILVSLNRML
Description: The inhibition of IGF-1R and Ins-R can be determined as follows: The baculovirus donor vector pfbgx3IGFIRcd is used to generate a recombinant baculovirus that expresses the amino acid region 950-1337 of the mature peptide cytoplasmic domain of the human IGF-IR. To generate the cDNA fragment encoding the amino acid region 919-1343 of the intra-cytoplasmic kinase domain of the human insulin receptor, pC5hInsR is used. The fragments of the human IGF-IR and Ins-R are cloned, expressed and small-scale purified as a factor Xa-cleavable glutathione-S-transferase (GST)-fusion protein using the Bac-to-Bac™ system (GIBCO BRL) of recombinant baculovirus generation. Virus containing media is collected from the transfected cell culture and used for infection to increase its titer. Virus containing media obtained after two rounds of infection is used for large-scale protein expression. Cell extracts are prepared and loaded onto a glutathione-Sepharose (Pharmacia) column. After washing, the GST-tagged proteins are then eluted with a glutathione-containing buffer. Purified protein is stored at −70° C. in elution buffer. Tyrosine protein kinase assays with purified GST-IGF-1R and GST-ins-R are carried in a final volume of 30 μl containing 20 mM Tris-HCl, pH 7.6, 10 mM MgCl2, 0.01 mM Na3VO4, 1% DMSO, 1 mM DTT, 3 μg/ml poly(Glu,Tyr) 4:1 and 10 μM ATP (γ-[^33P]-ATP 0.1 μCi). The assay is performed in 96-well plates at ambient temperature for 20 min and terminated by addition of 25 μl 0.05 M EDTA pH 7.0. An aliquot of 40 μl is spotted with a multichannel dispenser on Whatman P81 membranes mounted in a Millipore Microtiter filter manifold connected to a low vacuum source. After elimination of liquid, the membrane is transferred to a sequence of 4 washing baths containing 0.5% H3PO4 and one with EtOH (shaking incubation for 10 min each), dried, mounted onto a Hewlett Packard TopCount manifold added 10 μl Microscint® and counted. Compounds of formula (I) show up to 90% inhibition of Ins-R at 10,000 nM, preferably between 60-90% inhibition. The inhibition of Tek can be determined as follows: The procedure of the expression, purification and assay these kinases has been described. Fabbro et al., Pharmacol. Ther. 82(2-3) 293-301 (1999). In brief, the glutathione S-transferase (GST) gene from the pAcG1 vector (Pharmingen) is excised with EcoRV and EcoRI and inserted into the cloning site of the Fast-Bac baculoviral vector (GIBCO) creating a 5530 bp vector with N-terminal cloning sites derived from the pAcG1 fusion vector (FBG0). The C-terminal cloning site may be any cloning site (from the Fast-Bac vector) downstream of the N-terminal cloning site used. N-terminally GST-fused (pAcG1, Pharmingen) KDR, Flt-1, Flk-1, Tek and PDGFR-β kinase domains are obtained from ProQinase, Freiburg, Germany. Tek is recloned into the FBG1 vector by EcoRI excision and ligation into EcoRI digested FBG1 (FBG1-Tek). The coding sequences for the whole cytoplasmic domain of c-Kit (aa 544-976) and c-Fms (aa 538-972) are amplified by PCR from human uterus and from human bone marrow cDNA libraries (Clontech), respectively. The amplified DNA fragments are fused to GST by cloning them into FBG1 as BamHI-EcoRI insertions, to yield FBG1-c-Kit and FBG1-c-Fms. Tek is recloned into the FBG0 transfer vector by EcoRI excision and ligation into EcoRI digested FBG0 (FBG-Tie2/Tek). FGFR-1 and c-met kinase domains are obtained by PCR from human A431 cells. N-terminal primers contain an overhanging EcoRI site, while C-terminal primers contain a XhoI site to aid cloning into the transfer vectors. After digestion of both the PCR fragments and FBG0 the cleavage products are gel-purified and ligated together to form the kinase constructs (FBG-Met, FBG-FGFR-1).
Viruses for each of the kinases are made according to the protocol supplied by GIBCO. […]

[4] = Table 4, read-out: Cdk1, activity (IC50 for kinase inhibition)
[5] = Table 5, read-out: CDK1/B, IC50 class

| IC50 [1, 4] | IC50 [2] | IC50 [1, 5] | IC50 [3] | Structure (SMILES) |
| --- | --- | --- | --- | --- |
| < 10 µM |  |  |  | Nc1c(-c2cccc(O)c2)cnc2c(-c3cccnc3)cnn12 [Example 46, 3-[7-Amino-3-pyridin-3-yl-pyrazolo[1,5-a]pyrimidin-6-yl]-phenol] |
| < 10 µM |  |  |  | COc1cccc(-c2cnn3c(N)c(-c4cccc(O)c4)cnc23)c1 [Example 60, 3-[7-Amino-3-(3-methoxy-phenyl)-pyrazolo[1,5-a]pyrimidin-6-yl]-phenol] |
|  | 1 to 10 µM | > 10 µM | 1 to 10 µM | Cc1nc2c(-c3cccc(N4CCN(C)CC4)c3)cnn2c(N)c1-c1cccc(Cl)c1 [Example 72, 6-(3-Chloro-phenyl)-5-methyl-3-[3-(4-methyl-piperazin-1-yl)-phenyl]-pyrazolo[1,5-a]pyrimidin-7-ylamine] |
|  | 1 to 10 µM | > 10 µM | 1 to 10 µM | Cc1nc2c(-c3ccc(N4CCN(C)CC4)cc3)cnn2c(N)c1-c1cccc(Cl)c1 [Example 73, 6-(3-Chloro-phenyl)-5-methyl-3-[4-(4-methyl-piperazin-1-yl)-phenyl]-pyrazolo[1,5-a]pyrimidin-7-ylamine] |
|  | < 1 µM | > 10 µM | < 1 µM | COc1cc(N2CCN(C)CC2)ccc1-c1cnn2c(N)c(-c3cccc(O)c3)cnc12 [Example 76, 3-{7-Amino-3-[2-methoxy-4-(4-methyl-piperazin-1-yl)-phenyl]-pyrazolo[1,5-a]pyrimidin-6-yl}-phenol] |
|  |  |  | < 1 µM | CN1CCN(c2ccc(-c3cnn4c(N)c(-c5ccccc5Cl)cnc34)cc2)CC1 [Example 77, 6-(2-Chloro-phenyl)-3-[4-(4-methyl-piperazin-1-yl)-phenyl]-pyrazolo[1,5-a]pyrimidin-7-ylamine] |
|  |  |  | 1 to 10 µM | CN1CCN(c2cccc(-c3cnn4c(N)c(-c5ccccc5Cl)cnc34)c2)CC1 [Example 78, 6-(2-Chloro-phenyl)-3-[3-(4-methyl-piperazin-1-yl)-phenyl]-pyrazolo[1,5-a]pyrimidin-7-ylamine] |
|  | 1 to 10 µM | > 10 µM | > 10 µM | Cc1nc2c(-c3ccc(N4CCN(C)CC4)cc3)cnn2c(N)c1-c1ccc(F)cc1 [Example 79, 6-(4-Fluoro-phenyl)-5-methyl-3-[4-(4-methyl-piperazin-1-yl)-phenyl]-pyrazolo[1,5-a]pyrimidin-7-ylamine] |
|  | > 10 µM | > 10 µM | 1 to 10 µM | Cc1nc2c(-c3cccc(N4CCN(C)CC4)c3)cnn2c(N)c1-c1ccc(F)cc1 [Example 80, 6-(4-Fluoro-phenyl)-5-methyl-3-[3-(4-methyl-piperazin-1-yl)-phenyl]-pyrazolo[1,5-a]pyrimidin-7-ylamine] |
|  | > 10 µM | > 10 µM | < 1 µM | Cc1nc2c(-c3cccc(N4CCN(C5CCN(C)CC5)CC4)c3)cnn2c(N)c1-c1cccc(Cl)c1 [Example 81, 6-(3-Chloro-phenyl)-5-methyl-3-{3-[4-(1-methyl-piperidin-4-yl)-piperazin-1-yl]-phenyl}-pyrazolo[1,5-a]pyrimidin-7-ylamine] |
|  | > 10 µM | > 10 µM | > 10 µM | Cc1nc2c(-c3cccc(N4CCN(C)CC4)c3)cnn2c(N)c1-c1ccc(F)c(Cl)c1 [Example 82, 6-(3-Chloro-4-fluoro-phenyl)-5-methyl-3-[3-(4-methyl-piperazin-1-yl)-phenyl]pyrazolo[1,5-a]pyrimidin-7-ylamine] |
|  | > 10 µM | > 10 µM | > 10 µM | Cc1nc2c(-c3ccc(N4CCN(C)CC4)cc3)cnn2c(N)c1-c1ccc(F)c(Cl)c1 [Example 83, 6-(3-Chloro-4-fluoro-phenyl)-5-methyl-3-[4-(4-methyl-piperazin-1-yl)-phenyl]-pyrazolo[1,5-a]pyrimidin-7-ylamine] |
|  | > 10 µM | > 10 µM | > 10 µM | Cc1nc2c(-c3cccc(N4CCN(C)CC4)c3)cnn2c(N)c1-c1cccc(Br)c1 [Example 84, 6-(3-Bromo-phenyl)-5-methyl-3-[3-(4-methyl-piperazin-1-yl)-phenyl]-pyrazolo[1,5-a]pyrimidin-7-ylamine] |
|  | > 10 µM | > 10 µM | > 10 µM | CN1CCN(c2cccc(-c3cnn4c(N)c(Cc5cccc(Br)c5)cnc34)c2)CC1 [Example 85, 6-(3-Bromo-benzyl)-3-[3-(4-methyl-piperazin-1-yl)-phenyl]pyrazolo[1,5-a]pyrimidin-7-ylamine] |
|  | > 10 µM | > 10 µM | 1 to 10 µM | CN1CCN(c2cccc(-c3cnn4c(N)c(-c5cccc(Br)c5)cnc34)c2)CC1 [Example 86, 6-(3-Bromo-phenyl)-3-[3-(4-methyl-piperazin-1-yl)-phenyl]-pyrazolo[1,5-a]pyrimidin-7-ylamine] |
|  | > 10 µM | > 10 µM | > 10 µM | Cc1nc2c(-c3cccc(N4CCOCC4)c3)cnn2c(N)c1-c1cccc(Cl)c1 [Example 87, 6-(3-Chloro-phenyl)-5-methyl-3-(3-morpholin-4-yl-phenyl)-pyrazolo[1,5-a]pyrimidin-7-ylamine] |
|  | > 10 µM | > 10 µM | > 10 µM | COc1ccc(-c2cnn3c(N)c(-c4cccc(Cl)c4)c(C)nc23)cc1 [Example 88, 6-(3-Chloro-phenyl)-3-(4-methoxy-phenyl)-5-methyl-pyrazolo[1,5-a]pyrimidin-7-ylamine] |
